Experimental data reported in paper PMC12881674, “Activation of TRPV3 channels in bladder cancer cells stimulates ATP release” (Molecular Pharmacology, 2025).

Target: T1, TRPV3 in KU-19-19 cells (Homo sapiens, UniProt Q8NET8)
T1 construct: host or cells: KU-19-19
T1 sequence (Q8NET8 1-790): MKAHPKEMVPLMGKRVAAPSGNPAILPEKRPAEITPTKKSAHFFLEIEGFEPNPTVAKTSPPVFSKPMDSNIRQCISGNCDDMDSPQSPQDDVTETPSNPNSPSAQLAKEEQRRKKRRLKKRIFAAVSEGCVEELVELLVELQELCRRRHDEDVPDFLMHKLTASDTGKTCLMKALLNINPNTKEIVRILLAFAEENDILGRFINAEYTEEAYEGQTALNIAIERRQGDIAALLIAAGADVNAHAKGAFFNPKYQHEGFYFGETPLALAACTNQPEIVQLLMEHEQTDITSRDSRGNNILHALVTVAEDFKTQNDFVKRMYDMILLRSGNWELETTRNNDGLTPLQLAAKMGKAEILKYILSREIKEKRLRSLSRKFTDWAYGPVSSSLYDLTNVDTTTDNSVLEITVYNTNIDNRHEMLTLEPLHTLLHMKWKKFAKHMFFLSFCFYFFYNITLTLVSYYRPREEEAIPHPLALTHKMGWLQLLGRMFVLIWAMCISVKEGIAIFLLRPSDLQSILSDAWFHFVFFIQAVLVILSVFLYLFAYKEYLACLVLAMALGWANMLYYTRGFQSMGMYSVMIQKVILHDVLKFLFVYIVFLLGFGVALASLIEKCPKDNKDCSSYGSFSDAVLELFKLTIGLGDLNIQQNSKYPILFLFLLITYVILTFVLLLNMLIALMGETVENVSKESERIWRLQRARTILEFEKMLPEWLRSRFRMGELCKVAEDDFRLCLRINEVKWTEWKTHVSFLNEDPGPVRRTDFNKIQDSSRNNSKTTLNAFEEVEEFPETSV
Test: fura-2 Ca2+ assay in KU-19-19 bladder cancer cells
Type: cell-based
Conditions: 50 μM AV3-1
Procedure: All fluorometric Ca^2+ assays were performed in HBS buffer at room temperature. The compounds of the Enamine Diversity Set were diluted in a buffer composed of 150 mM NaCl and 20 mM HEPES and added to the cells at a final concentration of 25 μM (0.5% DMSO). For the primary compound screening and the generation of concentration-response analyses, a robotic liquid handling station (Freedom Evo 150; Tecan) with a built-in custom-made fluorescence plate imager was used. HEKTRPV3 and bladder cancer cell lines were harvested and loaded with 4 μM fluo-4/AM (Invitrogen; Fisher Scientific) in cell culture medium for 30 minutes at 37 °C. […] Fluorescence was excited using a 470-nm light-emitting diode, and emitted light was imaged through a 515-nm–long pass filter with a cooled Zyla 5.5 camera (Andor). Fluorescence was recorded and processed under the control of the μ-Manager 2.0 gamma software (https://micro-manager.org.[28]). After recording baseline fluorescence, compounds were dispensed into the wells via the liquid handling device. […] For further analysis, fluorescence signals were calculated for each well, corrected for background intensities and normalized to the initial signals. […] Fluorescence signals were excited with a fiber-coupled monochromator device (Polychrome V; Till Photonics) at 340, 358, and 380 nm and calibrated as described before.[29] […]

[Ca2+]i response in KU-19-19 cells: robust increases in [Ca^2+]i
Structure (SMILES): COC(=O)C12CN(Cc3ccccc3)CC1(C(=O)OC)CN(Cc1ccccc1)C2 (stereo not shown) [AV3-1]
